Measured values as given in the supplement of paper PMC10307832.

Compound: CN1CCN(CC1)C2=CC(=C(C=C2)NC3=NC(=C(S3)C(=O)C4=C(C=CC=C4Cl)Cl)N)OC [XMD14-99] + CCNC(=O)c1noc(-c2cc(C(C)C)c(O)cc2O)c1-c1ccc(CN2CCOCC2)cc1 [Luminespib] (partner 0.01 µM)
Assay: relative viability (nuclei count vs DMSO), 5 days (fraction); higher = more cells survive
Summary of the method: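 After 5 days of treatment, lung cancer cells in 1536-well plates were fixed and stained in a single step (final 0.05% Triton X-100, 1% formaldehyde, 1 ug/ml Hoechst) and their nuclei counted on 4× images. Treatment had been applied by pin tool the day after seeding as one drug alone or as a fixed anchor-drug dose with five library-drug doses (not always all listed) in √10 steps. Relative viability is the nuclei count of treated wells divided by that of vehicle wells, and values are medians of duplicate plates.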

Row | Cell Line | relative viability (first compound 0.08 µM) | relative viability (first compound 0.8 µM) | relative viability (first compound 2.53 µM) | relative viability (first compound 8 µM)
1 | NCI-H522 | 1.05 | 1.28 | 1.2 | 1.18
2 | HCC-15 | 0.412 | 0.258 | 0.214 | 0.256
3 | A-427 | 1.02 | 1.07 | 0.875 | 0.617
4 | NCI-H23 | 0.199 | 0.247 | 0.214 | 0.202
5 | NCI-H1734 | 0.175 | 0.179 | 0.172 | 0.185
6 | NCI-H1993 | 0.849 | 0.761 | 0.782 | 0.632
7 | PC-3 [JPC-3] | 0.682 | 0.66 | 0.564 | 0.588
8 | NCI-H1915 | 0.745 | 0.72 | 0.754 | 0.61
9 | NCI-H1666 | 1.05 | 0.936 | 0.949 | 0.88
10 | SK-MES-1 | 0.786 | 0.73 | 0.729 | 0.566
11 | NCI-H727 | 0.383 | 0.305 | 0.203 | 0.352
12 | RERF-LC-KJ | 1.26 | 1.13 | 1.05 | 0.822
13 | NCI-H1623 | 0.509 | 0.475 | 0.454 | 0.444
14 | LC-2-ad | 1.04 | 0.984 | 0.824 | 0.582
15 | CAL-12T | 0.387 | 0.524 | 0.358 | 0.346
16 | SK-LU-1 | 0.197 | 0.201 | 0.235 | 0.184
17 | NCI-H1650 | 0.21 | 0.208 | 0.189 | 0.188
18 | BEN | 0.377 | 0.419 | 0.271 | 0.285

Row | Cell Line | relative viability (first compound 0.08 µM) | relative viability (first compound 0.8 µM) | relative viability (first compound 2.53 µM) | relative viability (first compound 8 µM)
19 | EMC-BAC-2 | 1.19 | 1.13 | 0.99 | 1.01
20 | LU99A | 0.288 | 0.252 | 0.247 | 0.219
21 | ABC-1 | 0.511 | 0.7 | 0.806 | 0.382
22 | NCI-H2170 | 0.652 | 0.59 | 0.755 | 0.372
23 | NCI-H2405 | 0.659 | 0.767 | 0.861 | 0.475
24 | NCI-H2009 | 1.08 | 0.949 | 0.958 | 0.871
25 | NCI-H441 | 0.351 | 0.352 | 0.311 | 0.276
26 | PC-14 | 0.156 | 0.151 | 0.156 | 0.171
27 | HARA | 0.311 | 0.685 | 0.581 | 0.207
28 | NCI-H2126 | 0.966 | 0.827 | 0.873 | 0.595
29 | NCI-H1437 | 1.12 | 0.992 | 0.949 | 0.862
30 | NCI-H2342 | 0.778 | 0.725 | 0.787 | 0.745
31 | NCI-H1792 | 0.543 | 0.456 | 0.354 | 0.326
32 | ChaGo-K-1 | 0.565 | 0.599 | 0.609 | 0.513
33 | NCI-H661 | 0.855 | 0.778 | 0.697 | 0.55
34 | COR-L23 | 0.578 | 0.613 | 0.515 | 0.419
35 | COR-L 105 | 0.693 | 0.845 | 0.778 | 0.466
